Key:
[1] = tested on: adipocytes differentiated from Human Mesenchymal Stem Cell (MSC); assay: Triglyceride accumulation in MSC-derived adipocytes (microscopy, Oil Red O staining); assay type: cell-based; conditions: for triglyceride accumulation quantified by Oil Red O staining (FIG. 2B): cells cultured with compound vs DMSO
Protocol: (§1) Human Mesenchymal Stem Cell (MSC) and adipocyte differentiation media were obtained from Cambrex (Walkersville, Md.). MSCs were seeded in 24 well plates at 40,000 cells per well in MSC Basic Medium (MSCBM), supplemented with 10% serum and expanded for 7 days. At 100% of confluence, three cycles of induction/maintenance stimulated adipogetic differentiation. Each cycle consisted feeding MSCs with Adipogenic Induction Medium (AIM) for 3 days, followed by 1 day of culture in Adipogenic Maintenance Medium (AMM). AIM and AMM contained 10% serum, Pen-Sterep and L-Glu, supplemented with insulin, dexamethasone, indomethacin and IBMX, or insulin only. After 3 complete cycles of induction/maintenance, MSCs are cultured for 3 more days in AMM and analyzed.
(§2) To study the effects of immunomodulatory compounds on adipocyte differentiation, MSCs were differentiated in the presence of DMSO or varying concentrations of an immunomodulatory compound. DMSO and immunomodulatory compounds were added to the medium during the differentiation and maintenance steps. Phenotypic characterization of the cells for adipocyte markers, such as triglyceride content and adipokine secretion, was performed.
Fat content in adipocyte was quantified by Oil Red O staining. Cells were washed with PBS and fixed with 3.7% formaldehyde for 15 minutes. Lipid vacuoles were stained with 0.5% Oil Red O in 60% isopropanol for 30 minutes at 37° C. Cells were then washed three times with water and Oil Red O content was dissolved into 100% propanol. The optical density of the solution was measured at 510 nm.

[2] = tested on: leptin secretion in adipocytes; assay: Leptin secretion of adipocytes (quantikine human leptin immunoassay); assay type: cell-based; conditions: for concentration giving maximum of dose dependent leptin secretion response: adipocytes differentiated in presence of compound; for dexamethasone induced leptin secretion (FIG. 3C): dexamethasone added to the cells for 15 hours at the end of differentiation
Protocol: as §1, §2
(§3) Leptin and adiponectin were measured using the quantikine human leptin and human adiponectin immunoassay kits (R&D Systems, Minneapolis, Minn.). To measure leptin secretion, 100 μl of medium was collected from the cell plates, diluted 2 or 5 times depending on the collecting time during the differentiation process, and analyzed following the manufacturer's protocols. Results were corrected for the dilution factor. For adiponectin secretion, 50 μl of medium was collected and directly analyzed.

[3] = tested on: adiponectin secretion in adipocytes; assay: Adiponectin secretion of adipocytes (quantikine human adiponectin immunoassay); assay type: cell-based; conditions: adipocytes differentiated in presence of compound
Protocol: as §1
To study the effects of immunomodulatory compounds on adipocyte differentiation, MSCs were differentiated in the presence of DMSO or varying concentrations of an immunomodulatory compound. […]
as §3, with “Results were corrected for the dilution factor.” left out

leptin mRNA = assay: Northern blot of leptin mRNA in MSC-derived adipocytes; assay type: cell-based, Human; conditions: adipocytes treated with compound vs DMSO; GAPDH control unchanged
Protocol: as §1, §2
(§4) RNAs from MSC-derived adipocytes were isolated with RNeasy lipid tissue kit (Qiagen, Valencia, Calif.). […]

adiponectin mRNA = assay: Northern blot of adiponectin mRNA in MSC-derived adipocytes; assay type: cell-based, Human; conditions: adipocytes treated with compound vs DMSO; GAPDH control unchanged
Protocol: as §1, §2, §4

MSCs [4] = assay: MSC viability (XTT assay); assay type: cell-based, Human; conditions: MSCs treated for 2 days vs DMSO
Protocol: (§5) MSC viability was assayed using cell proliferation kit II (XTT) (Roche, Indianapolis, Ind.). MSC proliferation was assayed using 5-bromo-2′-deoxy-uridine labeling and detection kit III (BrdU) (Roche, Indianapolis, Ind.). MSCs have been seeded in 96 well plates and expanded for 2 days in presence of DMSO or varying concentrations of an immunomodulatory compound. XTT and BrdU were added to the cells for 20 hours. The viability and proliferation of MSCs were assayed following manufacturer's instructions.

MSCs [5] = assay: MSC proliferation (BrdU incorporation assay); assay type: cell-based, Human; conditions: MSCs treated for 2 days vs DMSO
Protocol: as §5

[6] = cited from earlier work; for interconversion of polymorphic form: aqueous solvent systems or higher relative humidities; for hygroscopicity of polymorphic form: crystalline form of 3-(4-amino-1-oxo-1,3 dihydro-isoindol-2-yl)-piperidene-2,6-dione

Structure (SMILES) | triglyceride accumulation quantified by Oil Red O staining (FIG. 2B) [1] | concentration giving maximum of dose dependent leptin secretion response [2] [µM] | dexamethasone induced leptin secretion (FIG. 3C) [2] | adiponectin secretion vs cells differentiated in DMSO (FIG. 4) [3] | level of leptin mRNAs (northern blot, FIG. 5) (leptin mRNA) | level of adiponectin mRNAs (northern blot, FIG. 5) (adiponectin mRNA) | cell viability (XTT, FIG. 6) (MSCs [4]) | cell proliferation (BrdU incorporation, FIG. 6) (MSCs [5]) | interconversion of polymorphic form [6] | hygroscopicity of polymorphic form [6] | also measured
Nc1cccc2c1CN(C1CCC(=O)NC1=O)C2=O (centres unmarked) [1-oxo-(2,6-dioxopiperidin-3-yl)-4-aminoisoindoline] | no significant difference | 25 | enhanced dexamethasone induced leptin secretion | lower levels of adiponectin secretion | dose-dependently increase | dose-dependent decrease | neither 1-oxo-(2,6-dioxopiperidin-3-yl)-4-aminoisoindoline nor 1,3-dioxo-(2,6-dioxopiperidin-3-yl)-4-aminoisoindoline caused significant change | neither 1-oxo-(2,6-dioxopiperidin-3-yl)-4-aminoisoindoline nor 1,3-dioxo-(2,6-dioxopiperidin-3-yl)-4-aminoisoindoline caused significant change |  |  | ability of the cells to accumulate triglyceride (microscopy, FIG. 2A) ([1]; cells differentiated with compound vs DMSO, lipid vacuoles observed): does not alter the ability of the cells to accumulate triglyceride; leptin secretion vs cells differentiated in DMSO (FIG. 3A) ([2]; adipocytes differentiated in presence of 2.5, 10, 25, or 50 μM): secreted higher levels of leptin
Nc1cccc2c1CN(C1CCC(=O)NC1=O)C2=O (centres unmarked) [Form B, 3-(4-amino-1-oxo-1,3 dihydro-isoindol-2-yl)-piperidene-2,6-dione] |  |  |  |  |  |  |  |  | converts to Form E in aqueous solvent systems |  | 
Nc1cccc2c1CN(C1CCC(=O)NC1=O)C2=O (centres unmarked) [Form D, 3-(4-amino-1-oxo-1,3 dihydro-isoindol-2-yl)-piperidene-2,6-dione] |  |  |  |  |  |  |  |  | will typically convert to Form B when stressed at higher relative humidities | either weakly or not hygroscopic | 
Nc1cccc2c1CN(C1CCC(=O)NC1=O)C2=O (centres unmarked) [Form A, 3-(4-amino-1-oxo-1,3 dihydro-isoindol-2-yl)-piperidene-2,6-dione] |  |  |  |  |  |  |  |  |  | weakly or not hygroscopic | relative stability of polymorphic form ([6]; Form A: among anhydrous polymorphs, Form E: in aqueous solvent systems): most thermodynamically stable anhydrous polymorph
Nc1cccc2c1C(=O)N(C1CCC(=O)NC1=O)C2=O (centres unmarked) [1,3-dioxo-(2,6-dioxopiperidin-3-yl)-4-aminoisoindoline] | no significant difference | 10 | enhanced dexamethasone induced leptin secretion | lower levels of adiponectin secretion | dose-dependently increase | dose-dependent decrease | neither 1-oxo-(2,6-dioxopiperidin-3-yl)-4-aminoisoindoline nor 1,3-dioxo-(2,6-dioxopiperidin-3-yl)-4-aminoisoindoline caused significant change | neither 1-oxo-(2,6-dioxopiperidin-3-yl)-4-aminoisoindoline nor 1,3-dioxo-(2,6-dioxopiperidin-3-yl)-4-aminoisoindoline caused significant change |  |  | leptin secretion vs cells differentiated in DMSO (FIG. 3B) ([2]; adipocytes differentiated in presence of 0. 1, 1, 2.5, or 10 μM): a similar result was observed
Nc1cccc2c1CN(C1CCC(=O)NC1=O)C2=O (centres unmarked) [Form C, 3-(4-amino-1-oxo-1,3 dihydro-isoindol-2-yl)-piperidene-2,6-dione] |  |  |  |  |  |  |  |  | can convert to Form B at higher relative humidities | not hygroscopic below about 85% RH | 

From patent publication US20070066512A1, “Methods and compositions using immunomodulatory compounds for the treatment of disorders associated with low plasma leptin levels” (priority 2005, published 2007)
